Measured values as given in PubChem BioAssay (NCI).
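These data come from cells grown in 96-well plates and exposed to compound for 48 hours at five concentrations. Here, GI50 denotes the concentration required for 50% inhibition of growth. At the TGI there is no net growth.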

What was measured:
Experiment in all cases: DTP human tumour cell line panel, 48 h
[1] = tested on: 786-0 renal
[2] = tested on: A498 renal
[3] = tested on: A549 NSCLC
[4] = tested on: ACHN renal
[5] = tested on: BT-549 breast
[6] = tested on: CCRF-CEM leukemia
[7] = tested on: COLO 205 colon
[8] = tested on: EKVX NSCLC
[9] = tested on: HCC-2998 colon
[10] = tested on: HCT-116 colon
[11] = tested on: HCT-15 colon
[12] = tested on: HL-60(TB) leukemia
[13] = tested on: HOP-62 NSCLC
[14] = tested on: HOP-92 NSCLC
[15] = tested on: HS 578T breast
[16] = tested on: HT29 colon
[17] = tested on: IGROV1 ovarian
[18] = tested on: K-562 leukemia
[19] = tested on: KM12 colon
[20] = tested on: LOX IMVI melanoma
[21] = tested on: M14 melanoma
[22] = tested on: MALME-3M melanoma
[23] = tested on: MCF7 breast
[24] = tested on: MDA-MB-231 breast
[25] = tested on: MDA-MB-435
[26] = tested on: MOLT-4 leukemia
[27] = tested on: NCI-H226 lung
[28] = tested on: NCI-H23 lung
[29] = tested on: NCI-H460 lung
[30] = tested on: NCI-H522 lung
[31] = tested on: NCI/ADR-RES ovarian
[32] = tested on: OVCAR-3 ovarian
[33] = tested on: OVCAR-4 ovarian
[34] = tested on: OVCAR-5 ovarian
[35] = tested on: OVCAR-8 ovarian
[36] = tested on: PC-3 prostate
[37] = tested on: RPMI-8226 leukemia
[38] = tested on: RXF 393 renal
[39] = tested on: SF-268 CNS
[40] = tested on: SF-295 CNS
[41] = tested on: SF-539 CNS
[42] = tested on: SK-MEL-2 melanoma
[43] = tested on: SK-MEL-28 melanoma
[44] = tested on: SK-MEL-5 melanoma
[45] = tested on: SK-OV-3 ovarian
[46] = tested on: SN12C renal
[47] = tested on: SNB-19 CNS
[48] = tested on: SNB-75 CNS
[49] = tested on: SR leukemia
[50] = tested on: SW-620 colon
[51] = tested on: T-47D breast
[52] = tested on: TK-10 renal
[53] = tested on: U251 CNS
[54] = tested on: UACC-257 melanoma
[55] = tested on: UACC-62 melanoma
[56] = tested on: UO-31 renal

`CCN1CCN(c2cc(C)nc(N(CCCNc3ccnc4cc(Cl)ccc34)Cc3cccs3)n2)CC1` showed a GI50 [1] of 1.56 µM, a TGI [1] of 3.58 µM and a GI50 [2] of 2.41 µM. For the same compound, the TGI [2] was 7.13 µM, the GI50 [3] was 3.22 µM and the TGI [3] was 14.4 µM. It also gave a GI50 [4] of 3.38 µM, a TGI [4] of 9.22 µM and a GI50 [5] of 1.93 µM. The TGI [5] was 5.04 µM, the GI50 [6] was 2.7 µM and the TGI [6] was 12.5 µM. For the same compound, the GI50 [7] was 1.57 µM, the TGI [7] was 3.32 µM and the GI50 [8] was 3.88 µM. It also gave a TGI [8] of 16.6 µM, a GI50 [9] of 1.98 µM and a TGI [9] of 4.58 µM. It also gave a GI50 [10] of 1.32 µM, a TGI [10] of 10.4 µM and a GI50 [11] of 1.33 µM. The TGI [11] was 4.51 µM, the GI50 [12] was 2.14 µM and the TGI [12] was 4.15 µM. The GI50 [13] was 2.79 µM, the TGI [13] was 15.2 µM and the GI50 [14] was 1.55 µM. For the same compound, the TGI [14] was 3.79 µM, the GI50 [15] was 2.02 µM and the TGI [15] was 5.02 µM. It also gave a GI50 [16] of 1.31 µM, a TGI [16] of 4.33 µM and a GI50 [17] of 2.11 µM. It also gave a TGI [17] of 6.58 µM, a GI50 [18] of 0.525 µM and a TGI [18] of 2.29 µM. The GI50 [19] was 2.62 µM, the TGI [19] was 12.7 µM and the GI50 [20] was 1.84 µM. The TGI [20] was 3.59 µM, the GI50 [21] was 1.8 µM and the TGI [21] was 3.51 µM. It also gave a GI50 [22] of 2.01 µM, a TGI [22] of 3.7 µM and a GI50 [23] of 2.22 µM. For the same compound, the TGI [23] was 10.3 µM, the GI50 [24] was 1.4 µM and the TGI [24] was 3.56 µM. The GI50 [25] was 1.59 µM, the TGI [25] was 2.95 µM and the GI50 [26] was 1.62 µM. It also gave a TGI [26] of 6.12 µM, a GI50 [27] of 8.12 µM and a TGI [27] of 31.5 µM. It also gave a GI50 [28] of 3.21 µM, a TGI [28] of 14.3 µM and a GI50 [29] of 2.47 µM. It also gave a TGI [29] of 7.84 µM, a GI50 [30] of 1.81 µM and a TGI [30] of 3.81 µM. The GI50 [31] was 2.96 µM, the TGI [31] was 16.8 µM and the GI50 [32] was 1.83 µM. It also gave a TGI [32] of 6.03 µM, a GI50 [33] of 2.11 µM and a TGI [33] of 12.7 µM. For the same compound, the GI50 [34] was 3.97 µM, the TGI [34] was 15.3 µM and the GI50 [35] was 3.06 µM. For the same compound, the TGI [35] was 10.9 µM, the GI50 [36] was 3.11 µM and the TGI [36] was 15.9 µM. The GI50 [37] was 1.57 µM, the TGI [37] was 4.82 µM and the GI50 [38] was 1.45 µM. The TGI [38] was 3.17 µM, the GI50 [39] was 2.03 µM and the TGI [39] was 6.62 µM. The GI50 [40] was 1.84 µM, the TGI [40] was 3.73 µM and the GI50 [41] was 1.76 µM. For the same compound, the TGI [41] was 3.33 µM, the GI50 [42] was 1.98 µM and the TGI [42] was 3.92 µM. For the same compound, the GI50 [43] was 1.82 µM, the TGI [43] was 3.39 µM and the GI50 [44] was 1.72 µM. For the same compound, the TGI [44] was 3.11 µM, the GI50 [45] was 3.29 µM and the TGI [45] was 10.5 µM. It also gave a GI50 [46] of 3.35 µM, a TGI [46] of 14 µM and a GI50 [47] of 3.88 µM. For the same compound, the TGI [47] was 13.9 µM, the GI50 [48] was 1.5 µM and the TGI [48] was 3.2 µM. The GI50 [49] was 1.29 µM, the TGI [49] was 3.23 µM and the GI50 [50] was 1.59 µM. It also gave a TGI [50] of 3.86 µM, a GI50 [51] of 2.29 µM and a TGI [51] of 6.89 µM. It also gave a GI50 [52] of 1.82 µM, a TGI [52] of 4.09 µM and a GI50 [53] of 2.22 µM. For the same compound, the TGI [53] was 7.05 µM, the GI50 [54] was 2.1 µM and the TGI [54] was 3.94 µM. The GI50 [55] was 1.93 µM, the TGI [55] was 3.56 µM and the GI50 [56] was 1.33 µM. The TGI [56] was 2.88 µM.
